Measured values reported in US10618918B2, “Substituted boronic acids as antimicrobials” (priority 2015, dated 2020).

How the values were obtained:
ec302 TEM-10 [1] = test: Aztreonam potentiation (MPC@4), strain ec302 TEM-10; conditions: read-out: Aztreonam MIC
KP1004 KPC-2 = test: Aztreonam potentiation (MPC@4), strain KP1004 KPC-2; conditions: read-out: Aztreonam MIC
KP1005 CTX-M-14 [2] = test: Aztreonam potentiation (MPC@4), strain KP1005 CTX-M-14; conditions: read-out: Aztreonam MIC
KP1010 SHV-12 [3] = test: Aztreonam potentiation (MPC@4), strain KP1010 SHV-12; conditions: read-out: Aztreonam MIC
EC1010 CMY-6 [4] = test: Aztreonam potentiation (MPC@4), strain EC1010 CMY-6; conditions: read-out: Aztreonam MIC
KP1009 CTX-M-15 [5] = test: Aztreonam potentiation (MPC@4), strain KP1009 CTX-M-15; conditions: read-out: Aztreonam MIC
ec308 SHV-5 [6] = test: Aztreonam potentiation (MPC@4), strain ec308 SHV-5; conditions: read-out: Aztreonam MIC
KP1009 CTX-M-15 [7] = test: Tigemonam potentiation (MPC@4), strain KP1009 CTX-M-15
KP1010 SHV-12 [8] = test: Tigemonam potentiation (MPC@4), strain KP1010 SHV-12; conditions: strain KP1010 SHV-12; tigemonam alone
ec308 SHV-5 [9] = test: Tigemonam potentiation (MPC@4), strain ec308 SHV-5; assay type: cell-based; conditions: strain ec308 SHV-5; tigemonam alone
EC1010 CMY-6 [10] = test: Tigemonam potentiation (MPC@4), strain EC1010 CMY-6; assay type: cell-based; conditions: strain EC1010 CMY-6; tigemonam alone
ec302 TEM-10 [11] = test: Tigemonam potentiation (MPC@4), strain ec302 TEM-10; assay type: cell-based; conditions: strain ec302 TEM-10; tigemonam alone
ECL1002 = test: Tigemonam potentiation (MPC@4), strain ECL1002; assay type: cell-based; conditions: strain ECL1002; tigemonam alone
KP1005 CTX-M-14 [12] = test: Tigemonam potentiation (MPC@4), strain KP1005 CTX-M-14

SMILES	MIC (ec302 TEM-10 [1])	MIC (KP1004 KPC-2)	MIC (KP1005 CTX-M-14 [2])	MIC (KP1010 SHV-12 [3])	MIC (EC1010 CMY-6 [4])	MIC (KP1009 CTX-M-15 [5])	MIC (ec308 SHV-5 [6])	Tigemonam MIC (KP1009 CTX-M-15 [7])	Tigemonam MIC (KP1010 SHV-12 [8])	Tigemonam MIC (ec308 SHV-5 [9])	Tigemonam MIC (EC1010 CMY-6 [10])	Tigemonam MIC (ec302 TEM-10 [11])	Tigemonam MIC (ECL1002)	Tigemonam MIC (KP1005 CTX-M-14 [12])
C[C@H]1[C@H](NC(=O)/C(=N\OC(C)(C)C(=O)O)c2csc(N)n2)C(=O)N1S(=O)(=O)O [Aztreonam, reference compound]	128 µg/mL	> 128 µg/mL	> 128 µg/mL	64 µg/mL	> 128 µg/mL	> 128 µg/mL	> 128 µg/mL							
CC1(C)[C@H](NC(=O)/C(=N\OCC(=O)O)c2csc(N)n2)C(=O)N1OS(=O)(=O)O [Tigemonam, reference compound]								>64 µg/mL	>64 µg/mL	>64 µg/mL	16 µg/mL	>64 µg/mL	32 µg/mL	>64 µg/mL
